Reference: patent publication US10662146B2, “Prodrugs of fencamfamine” (Praxis Bioresearch, LLC, priority 2015, dated 2020)
Values joined by “and” are separate entries in the source; they are usually repeats but may differ in a detail not shown here. Equal entries are not always repeated. Where two headings read alike, the source gives them in different places.

Assay: Single dose oral PK study in male Sprague Dawley rats (plasma by LC-MS/MS)
Format: in vivo
Procedure: We describe here PK results of prodrugs of PRX-002 (−) or (+) isomers. All doses of prodrugs were administered such that they were equivalent to 5 mg/kg of PRX-002 (−) or (+) for oral studies and 2 mg/kg PRX-002 (−) or (+) for intravenous studies in male Sprague-Dawley (MSD) rats. Higher doses of up to 10 or 15 mg/kg [again equivalent to PRX-002 (−)] were used in some studies (as specified)]. Formulation preparation, dose administration and time of sample collection was as follows.
Test item was weighed [5 mg equivalent dose of PRX-002 for prodrugs] and transferred to a graduated tube. Then 10 μL of Tween 80 was added and vortexed mixed until the test item was completely mixed. Small volume of 0.5% (w/v) carboxymethylcellulose in water solution was then added dropwise with continuous vortex mixing until a uniform suspension was obtained. The final volume was then made up to 10 mL with 0.5% (w/v) carboxymethylcellulose in water with final strength of 0.5 mg/mL. […] This formulation was freshly prepared before the administration to animals.
(§1) Adult male Sprague Dawley Rats aged 8-10 weeks were used for the study. Fasted animals were administered test item by oral route with a dose of 5 mg/kg body weight at dose volume of 10 mL/kg body weight. Under mild isoflurane anesthesia, blood specimens were collected by retro-orbital puncture method using capillary tubes into pre-labeled tubes containing anticoagulant (K2EDTA-2 mg/mL blood) during the next 24 hours of post dose as mentioned in below table. For blood sampling at multiple time points, right and left eyes were used alternatively for blood collection. Collected blood specimens were centrifuged at 4000 rpm, 4° C. for 10 minutes and plasma were separated and stored at −80° C. until analysis.
Blood was collected as outlined in Table 39.1 (oral).
(§2) Test item PRX-P4-003 was weighed and transferred to a graduated tube. Then 12.42 μL of Tween 80 was added and vortexed mixed until the test item was completely mixed. Small volume of 0.5% (w/v) Carboxymethylcellulose in water solution was then added dropwise with continuous vortex mixing until a uniform suspension was obtained. The final volume was then made up to 12.42 mL with 0.5% (w/v) Carboxymethylcellulose in water with final strength of 1.0 mgA/mL. […] This formulation was freshly prepared before the administration to animals.
as §1, with “with a PRX-P4-003” for “test item”, “10” for “5”
as §2, with “PRX-P5-006” for “PRX-P4-003”, “10” for “12.42”, “3.97 mg/mL.” for “1.0 mgA/mL.”
Adult male Sprague Dawley Rats aged 8-10 weeks were used for the study. Fasted animals were administered with a PRX-P5-006 by oral route with a dose of 15 mg/kg body weight at dose volume of 10 mL/kg body weight. […]

[1] = single oral dose 5 mg/kg body weight, individual animals (R0175, R0176, R0177), plasma, 5 mg/kg

Structure (SMILES): CCCCCCCCCCCCCCCCCC(=O)OC(C)OC(=O)N(CC)C1C2CCC(C2)C1c1ccccc1 (single isomer, unassigned) [PRX-P5-011, N-(1-Octadecanoyloxyethoxycarbonyl)-(+)-N-ethyl-3-phenylbicyclo[2.2.1]heptan-2-amine]
- Plasma concentration of PRX-P5-011 (PRX-P5-011 oral (5 mg/kg equivalent), 0.00 h, individual animals): 0.00 ng/mL
- Plasma concentration of PRX-P5-011 (PRX-P5-011 oral (5 mg/kg equivalent), 0.00 h, mean): 0.000 ng/mL
- Plasma concentration of PRX-P5-011 (PRX-P5-011 oral (5 mg/kg equivalent), 0.08 h, individual animals): 0.00 ng/mL
- Plasma concentration of PRX-P5-011 (PRX-P5-011 oral (5 mg/kg equivalent), 0.08 h, mean): 0.000 ng/mL
- Plasma concentration of PRX-P5-011 (PRX-P5-011 oral (5 mg/kg equivalent), 0.25 h, individual animals): 0.00 ng/mL
- Plasma concentration of PRX-P5-011 (PRX-P5-011 oral (5 mg/kg equivalent), 0.25 h, mean): 0.000 ng/mL
- Plasma concentration of PRX-P5-011 (PRX-P5-011 oral (5 mg/kg equivalent), 0.50 h, individual animals): 0.00 ng/mL
- Plasma concentration of PRX-P5-011 (PRX-P5-011 oral (5 mg/kg equivalent), 0.50 h, mean): 0.000 ng/mL
- Plasma concentration of PRX-P5-011 (PRX-P5-011 oral (5 mg/kg equivalent), 1.00 h, individual animals): 0.00 ng/mL
- Plasma concentration of PRX-P5-011 (PRX-P5-011 oral (5 mg/kg equivalent), 1.00 h, mean): 0.000 ng/mL
- Plasma concentration of PRX-P5-011 (PRX-P5-011 oral (5 mg/kg equivalent), 2.00 h, individual animals): 0.00 ng/mL
- Plasma concentration of PRX-P5-011 (PRX-P5-011 oral (5 mg/kg equivalent), 2.00 h, mean): 0.000 ng/mL
- Plasma concentration of PRX-P5-011 (PRX-P5-011 oral (5 mg/kg equivalent), 4.00 h, individual animals): 0.00 ng/mL
- Plasma concentration of PRX-P5-011 (PRX-P5-011 oral (5 mg/kg equivalent), 4.00 h, mean): 0.000 ng/mL
- Plasma concentration of PRX-P5-011 (PRX-P5-011 oral (5 mg/kg equivalent), 6.00 h, individual animals): 0.00 ng/mL
- Plasma concentration of PRX-P5-011 (PRX-P5-011 oral (5 mg/kg equivalent), 6.00 h, mean): 0.000 ng/mL
- Plasma concentration of PRX-P5-011 (PRX-P5-011 oral (5 mg/kg equivalent), 24.00 h, individual animals): 0.00 ng/mL
- Plasma concentration of PRX-P5-011 (PRX-P5-011 oral (5 mg/kg equivalent), 24.00 h, mean): 0.000 ng/mL
- Active compound PRX-002 (+) in plasma (PRX-P5-011 oral administration): not detected
- concentration at 0 h (male, Sprague-Dawley, rat, in vivo, PRX-P5-011 oral (5 mg/kg equivalent), 0.00 h, individual animals, read-out: Plasma concentration of PRX-P5-011): 0 ng/mL
- concentration at 0.08 h (male, Sprague-Dawley, rat, in vivo, PRX-P5-011 oral (5 mg/kg equivalent), 0.08 h, individual animals, read-out: Plasma concentration of PRX-P5-011): 0 ng/mL
- concentration at 0.25 h (male, Sprague-Dawley, rat, in vivo, PRX-P5-011 oral (5 mg/kg equivalent), 0.25 h, individual animals, read-out: Plasma concentration of PRX-P5-011): 0 ng/mL
- concentration at 0.5 h (male, Sprague-Dawley, rat, in vivo, PRX-P5-011 oral (5 mg/kg equivalent), 0.50 h, individual animals, read-out: Plasma concentration of PRX-P5-011): 0 ng/mL
- concentration at 1 h (male, Sprague-Dawley, rat, in vivo, PRX-P5-011 oral (5 mg/kg equivalent), 1.00 h, individual animals, read-out: Plasma concentration of PRX-P5-011): 0 ng/mL
- concentration at 2 h (male, Sprague-Dawley, rat, in vivo, PRX-P5-011 oral (5 mg/kg equivalent), 2.00 h, individual animals, read-out: Plasma concentration of PRX-P5-011): 0 ng/mL
- concentration at 4 h (male, Sprague-Dawley, rat, in vivo, PRX-P5-011 oral (5 mg/kg equivalent), 4.00 h, individual animals, read-out: Plasma concentration of PRX-P5-011): 0 ng/mL
- concentration at 6 h (male, Sprague-Dawley, rat, in vivo, PRX-P5-011 oral (5 mg/kg equivalent), 6.00 h, individual animals, read-out: Plasma concentration of PRX-P5-011): 0 ng/mL
- concentration at 24 h (male, Sprague-Dawley, rat, in vivo, PRX-P5-011 oral (5 mg/kg equivalent), 24.00 h, individual animals, read-out: Plasma concentration of PRX-P5-011): 0 ng/mL
- Oral PK Parameters Tmax, Prodrug (oral 5 mg/kg [equivalent to PRX-002 (−)], analyte: prodrug in plasma, mean): 0 h

Structure (SMILES): CCN[C@H]1[C@H]2CC[C@H](C2)[C@@H]1c1ccccc1 [PRX-002 (+) Isomer, (1S,2S,3R,4R)—N-Ethyl-3-phenylbicyclo[2.2.1]heptan-2-amine, reference compound]
- AUC% extrap of PRX-002(+) Isomer (PRX-002 (+) Isomer oral 5 mg/kg, mean, listed as PRX-002(+) Isomer, 5 mg/kg): 18.063 ±11.646%
- AUC% extrap of PRX-002(+) Isomer (PRX-002 (+) Isomer oral 5 mg/kg, mean, listed as PRX-002 (+isomer), 5 mg/kg): 18.063 ± 11.646%
- AUC(0-inf) (male, Sprague Dawley, rat, in vivo, po, 5 mg/kg, single oral dose 5 mg/kg b.w., mean plasma PK parameters (mean ± SD), read-out: AUCinf): 151 ± 68.6 ng·h/mL
- AUC(0-t) (male, Sprague Dawley, rat, in vivo, po, 5 mg/kg, single oral dose 5 mg/kg b.w., mean plasma PK parameters (mean ± SD), read-out: AUClast): 128 ± 74.2 ng·h/mL
- Cmax (male, Sprague Dawley, rat, in vivo, po, 5 mg/kg, single oral dose 5 mg/kg b.w., mean plasma PK parameters (mean ± SD), read-out: Cmax): 107 ± 25.4 ng/mL
- MRT last (male, Sprague Dawley, rat, in vivo, po, 5 mg/kg, single oral dose 5 mg/kg b.w., mean plasma PK parameters (mean ± SD), read-out: MRTlast): 57.4 ± 16.1 min
- half-life (male, Sprague Dawley, rat, in vivo, po, 5 mg/kg, single oral dose 5 mg/kg b.w., mean plasma PK parameters (mean ± SD), read-out: T1/2 (converted)): 59.5 ± 13.7 min
- Cmax (male, Sprague Dawley, rat, in vivo, po, 5 mg/kg, single oral dose 5 mg/kg body weight, individual animals (R0175, R0176, R0177), plasma, read-out: Cmax): 135 ng/mL
- MRT last (male, Sprague Dawley, rat, in vivo, po, 5 mg/kg, single oral dose 5 mg/kg body weight, individual animals (R0175, R0176, R0177), plasma, read-out: MRTlast): 75.6 min
- half-life (male, Sprague Dawley, rat, in vivo, po, 5 mg/kg, single oral dose 5 mg/kg body weight, individual animals (R0175, R0176, R0177), plasma, read-out: T1/2 (converted)): 64.2 min
- AUC(0-inf) (male, Sprague Dawley, rat, in vivo, po, 5 mg/kg, single oral dose 5 mg/kg body weight, mean of N=3 (Table 39.24), read-out: AUCinf): 151 ng·h/mL
- AUC(0-t) (male, Sprague Dawley, rat, in vivo, po, 5 mg/kg, single oral dose 5 mg/kg body weight, mean of N=3 (Table 39.24), read-out: AUClast): 128 ng·h/mL
- Cmax (male, Sprague Dawley, rat, in vivo, po, 5 mg/kg, single oral dose 5 mg/kg body weight, mean of N=3 (Table 39.24), read-out: Cmax): 107 ng/mL
- MRT last (male, Sprague Dawley, rat, in vivo, po, 5 mg/kg, single oral dose 5 mg/kg body weight, mean of N=3 (Table 39.24), read-out: MRTlast): 57.4 min
- half-life (male, Sprague Dawley, rat, in vivo, po, 5 mg/kg, single oral dose 5 mg/kg body weight, mean of N=3 (Table 39.24), read-out: T1/2 (converted)): 59.5 min
- Tmax (male, Sprague Dawley, rat, in vivo, single oral dose 5 mg/kg body weight, individual animals (R0175, R0176, R0177), plasma, read-out: Tmax): 30 min
- AUC(0-inf) (male, Sprague-Dawley, rat, in vivo, po, 5 mg/kg, PRX-002 (+) Isomer oral 5 mg/kg, mean, read-out: AUCinf of PRX-002(+) Isomer): 151 ± 68.6 ng·h/mL
- AUC(0-t) (male, Sprague-Dawley, rat, in vivo, po, 5 mg/kg, PRX-002 (+) Isomer oral 5 mg/kg, mean, read-out: AUClast of PRX-002(+) Isomer): 128 ± 74.2 ng·h/mL
- Cmax (male, Sprague-Dawley, rat, in vivo, po, 5 mg/kg, PRX-002 (+) Isomer oral 5 mg/kg, mean, read-out: Cmax of PRX-002(+) Isomer): 107 ± 25.4 ng/mL
- MRT last (male, Sprague-Dawley, rat, in vivo, po, 5 mg/kg, PRX-002 (+) Isomer oral 5 mg/kg, mean, read-out: MRTlast of PRX-002(+) Isomer): 57.4 ± 16.1 min
- half-life (male, Sprague-Dawley, rat, in vivo, po, 5 mg/kg, PRX-002 (+) Isomer oral 5 mg/kg, mean, read-out: T1/2 of PRX-002(+) Isomer (converted)): 59.5 ± 13.7 min
- Tmax (male, Sprague-Dawley, rat, in vivo, PRX-002 (+) Isomer oral 5 mg/kg, mean, read-out: Tmax of PRX-002(+) Isomer): 30 min
- AUC% extrap (single oral dose 5 mg/kg b.w., mean plasma PK parameters (mean ± SD)): 18.063 ± 11.646%
- AUC% extrap [1]: 6.89% and 30.13% and 17.17%
- AUCinf [1]: 229.43 ng·h/mL and 124.51 ng·h/mL and 100.4 ng·h/mL
- AUClast [1]: 213.62 ng·h/mL and 87 ng·h/mL and 83.16 ng·h/mL
- Cmax [1]: 85.44 ng/mL and 99.85 ng/mL
- MRTlast [1]: 51.6 min and 45 min
- T1/2 [1]: 70.2 min and 44.4 min
- AUC% extrap (single oral dose 5 mg/kg body weight, mean of N=3 (Table 39.24)): 18.063%
